The results in this text go back to patent publication US5441947A, “Methods of inhibiting vascular restenosis” (Eli Lilly and Company, priority 1993, dated 1995).

For this test, the system named is smooth muscle cell chemotaxis. The test is described as follows: smooth muscle cell chemotaxis (96 well chemotaxis chamber, PDGF-BB as inducer). Particulars: four hours; for Degree of Cell Migration: absorbance; for IC50: 4 h, PDGF-BB 10 ng/ml as inducer, 37° C., read-out: half maximal inhibiting concentrations (IC50) to inhibit smooth muscle cell chemotaxis. The test is classed as cell-based. On the procedure: Compounds of the invention were tested for impact on smooth muscle cell chemotaxis using a model AB96 Neuro Probe® 96 well chemotaxis chaser. […] This chamber is available from Neuro Probe, Inc., P.O. Box 400, Cabin John, Md.
The chamber consists of a top plate, a bottom plate, a gasket and a polyvinyl pyrrolidone-free polycarbonate filter. […] The 8 μm pore filter is soaked in 0.5N acetic acid overnight and coated with collagen at 100 μg/ml in 0.1N acetic acid for 2 days. The filter is then dried in a hood. The filter is then installed on the bottom plate, followed by the gasket. The top plate is then placed on the gasket, forming the top wells. In the top wells, smooth muscle cells are placed with the compounds to be tested at specified concentrations in around 225 μl volume. The smooth muscle cells are plated at a density of 0.5×10^6 cells/mi. The chamber is incubated at 37° C., 5% CO2 for four hours, and at the end of this time the upper well-cells are scraped off. The lower well cells are fixed, stained, and the absorbance is read.

Where [1] appears, read: 0.03 μM compound, PDGF-BB 10 ng/ml.
Setting [2] is: 0.1 μm compound, PDGF-BB 10 ng/ml.
Where [3] appears, read: 0.3 μm compound, PDGF-BB 10 ng/ml.
[4] abbreviates: 10 μm compound, PDGF-BB 10 ng/ml.

Several values for one entry are separate records, joined by “and”; a condition that tells them apart may be missing. Equal values may be shown once.

Regarding `COC[C@H]1OC(=O)c2coc3c2[C@@]1(C)C1=C(C3=O)[C@@H]2CCC(=O)[C@@]2(C)CC1` [Ib, 11-desacetoxywortmannin], the IC50 amounted to 0.2 µM. Besides, the “Degree of Cell Migration” value under setting [1] is 0.044 and 0.036. Further, the “Degree of Cell Migration” value under setting [2] was 0.040 and 0.028. Besides, the “Degree of Cell Migration” value under setting [3] turned out to be 0.015.
Take `COCC1OC(=O)c2coc3c2C1(C)C1=C(C3=O)C2CCC(O)C2(C)CC1OC(C)=O` (stereo not drawn) [IIIA, 17α-Dihydrowortmannin]: the IC50 was found to be 0.02 µM. Further, the “Degree of Cell Migration” value (0.01 μm compound, PDGF-BB 10 ng/ml) stood at 0.033. Moreover, the “Degree of Cell Migration” value under setting [2] was -0.010.
`Cc1c2c(c(O)c3occ(C(=O)O)c13)[C@@H]1CCC(=O)[C@@]1(C)C=C2` [IVa, opened A-ring acid of wortmannin]: the IC50 is greater than 10 µM. In addition, the “Degree of Cell Migration” value under setting [4] turned out to be 0.04.
Consider `COc1cc2c(c(OC)c1OC)-c1ccc(OC)c(=O)cc1[C@@H](NC(C)=O)CC2` [Colchicine, reference compound], for which the “Degree of Cell Migration” value (1 μm compound, PDGF-BB 10 ng/ml) came to 0.000.
Consider `COC(=O)c1coc2c(O)c3c(c(C)c12)C=C[C@]1(C)C(=O)CC[C@@H]31` [IVb, opened A-ring methyl ester of wortmannin], for which the IC50 came out at 10 µM. Further, the “Degree of Cell Migration” value under setting [4] was found to be 0.026.
In the case of `COCC1OC(=O)c2coc3c2C1(C)C1=C(C3=O)C2CCC(=O)C2(C)CC1OC(C)=O` (stereo not drawn) [Ia, wortmannin], the IC50 is 0.03 µM. In addition, under setting [1], the “Degree of Cell Migration” value came out at 0.020. Further, the “Degree of Cell Migration” value under setting [2] is on record as 0.006. The “Degree of Cell Migration” value under setting [3] was -0.001.
Regarding `COC[C@H]1OC(=O)c2coc3c2[C@@]1(C)C1=CC[C@]2(C)C(=O)CC[C@H]2C1C3=O` (stereo partly drawn) [II, Δ9,11-dehydrodesacetoxywortmannin], the IC50 turned out to be 0.2 µM.

B1: PDGF: PDGF-BB at 10 ng/ml as an inducer, or chemoattractant (protein, UniProt P01127 82-190, looked up)
Platelet-derived growth …: SLGSLTIAEPAMIAECKTRTEVFEISRRLIDRTNANFLVWPPCVEVQRCSGCCNNRNVQCRPTQVQLRPVQVRKIEIVRKKPIFKKATVTLEDHLACKCETVAAARPVT
For B1, the “Degree of Cell Migration” value (PDGF 10 ng/ml alone (inducer control)) was 0.046.
